Reference: patent US12036214B2, “Solid dispersion comprising an anticancer compound for improved solubility and efficacy” (COUNCIL OF SCIENTIFIC AND INDUSTRIAL RESEARCH, priority 2018, dated 2024)
Where “and” joins values, the source holds several entries; their conditions need not be identical. Equal values may be shown once.

Experiments:
[1] = tested on: Ehrlich Ascites Carcinoma (EAC) cells; experiment: Ehrlich solid tumor model; format: in vivo
Protocol: Novel oral solid dispersion containing anticancer compound of formula A was tested for in-vivo anticancer activity using Ehrlich Solid Tumor model. In this model, after oral administration of formulation VKB-SD75 and the compound of formula A in male Swiss mice up to 9 days, the % tumor growth inhibition was calculated on 13th day.
The in-vivo efficacy testing of best identified solid dispersion formulation VKB-SD75 was done using Ehrlich solid tumor model, parallelly with the compound of Formula A. Ehrlich Ascites Carcinoma (EAC) cells were collected from the peritoneal cavity of the Swiss mice weighing 18-23 g, harboring 8-10 days old ascetic tumor. 1×10^7 EAC cells were injected intramuscularly in the right thigh of Swiss male mice selected for the experiment on day 0. The next day, animals were randomized and divided into 8 groups. Seven treatment groups contained 7 animals each and one control groups contained 10 animals each. Treatment group 1-6 were treated with the compound of formula A and solid dispersion formulation at different dose strength once daily from day 1-9. The seventh treatment group was treated with 5-fluorouracil (22 mg/kg, i.p.) from day 1-9 and it served as positive control. The control group was similarly administered normal saline (0.2 ml, i.p) from day 1-9. On day 9 & 13, tumor-bearing thigh of each animal was shaved, and longest and shortest diameters of the tumor were measured with the help of vernier caliper. The percent tumor growth inhibition was calculated on day 13 by comparing the average values of treated groups with that of the control group. Tumor growth in saline-treated control animals was taken to be 100%.

Molt-4 = conditions: read-out: Molt-4 cell growth GI50; cited from earlier work
MIAPaCa-2 = conditions: read-out: MIAPaCa-2 cell growth GI50; cited from earlier work
leukemia xenograft = conditions: 50 mg/kg, po; cited from earlier work
in vivo = conditions: male, BALB/c, mouse, po, 50 mg/kg
Protocol: (§2) The vehicle used for PK study was 1% v/v Tween 80 in 0.5% sodium CMC in water. Blood samples were collected (n=3/time point) at 0.083 (IV only), 0.25, 0.5, 1, 2, 4, 8 and 24 h, post-dose. At each time point about 200 μL of blood was collected by jugular vein into a labeled microfuge tube containing 200 mM K2EDTA solution (20 μL per mL of blood) and equivalent volume of heparinized saline was replaced following sample collection. The blood samples were processed to obtain the plasma samples within 30 min of scheduled sampling time. All plasma samples were stored below −60° C. until bioanalysis. […] The pharmacokinetic parameters of compound of formula A were calculated using the non-compartmental analysis tool of validated Phoenix® WinNonlin® software (version 6.3).

[2] = In-vitro dissolution, USP type-2 paddle apparatus, sink conditions; format: physicochemical; conditions: 50 rpm, 37° C.
Protocol: (§1) The water solubility of prepared solid dispersions along with compound of Formula A was determined using shake flask method, wherein the analysis was done by HPLC. The in-vitro dissolution studies were performed using U.S.P. type-2 (paddle type) dissolution apparatus at a speed of 50 rpm, and temperature of 37° C.±0.5, using 250 ml of dissolution media (0.25% SLS containing water and phosphate buffer pH 6.8 up to 6 h). Further, the solid dispersions were characterized using different analytical techniques such as DSC, FTIR, XRD, etc.
The dissolution profile of compound and solid dispersion formulation VKB-SD75 was studied in sink conditions. For the sink condition, 0.25% SLS was added to dissolution media and dissolution was studied in water and pH 6.8 phosphate buffer (Ilevbare, G. A. et al., Pharmaceutical amorphous solid dispersions, Eds. John Wiley & Sons 2015, pp. 218). The dissolution studies were carried out using Lab-India Dissolution Tester (Model: DS 8000; apparatus 2—Paddle Apparatus) at 50 rpm and 37° C.±0.5 and dissolution media volume was 250 mL. Formulation equivalent to 10 mg of compound was added to each dissolution vessel in triplicate and 1 ml sample was taken and replaced by fresh dissolution media at different time points (0.25, 0.50, 1, 2, 4, 6 hrs).
The percentage drug dissolved was determined by HPLC analysis. […]

[3] = tested on: cancer cells over normal fibroblast-cells; conditions: cited from earlier work
colon xenograft = conditions: 50 mg/kg, po; cited from earlier work
Lipophilicity (log P) = format: physicochemical
pancreatic xenograft = conditions: 50 mg/kg, po; cited from earlier work
physchem = conditions: 37 °C, water, thermodynamic from solid
[4] = pH dependent stability in buffers, SGF, SIF and plasma; format: physicochemical; conditions: pH 1.2, pH 4.0, pH 6.8, PBS pH 7.4, SGF (pH 1.2), SIF (pH 6.8) and plasma, upto 24 hrs
Protocol: The stability of compound was performed in pH 1.2 buffer, pH 4.0 buffer, phosphate buffer pH 6.8, phosphate buffered saline pH 7.4, SGF (pH 1.2), SIF (pH 6.8) and plasma upto 24 hrs. The % compound hydrolyzed or degraded was determined by HPLC analysis.

CYP/efflux-pump = conditions: cited from earlier work
[5] = male, BALB/c, mouse, in vivo, po, 50 mg/kg
Protocol: as §2

[6] = Water solubility by shake flask method with HPLC analysis; format: physicochemical; conditions: distilled water, 25 °C, thermodynamic from solid
Protocol: as §1
Solid dispersions were formulated as different formulations containing anticancer compound (formula A) along with different polymers in different proportions as shown in Table 1 and 2. First the anticancer compound and various excipients/hydrophilic polymers were weighed accurately. Both the compound and polymers were dissolved in methanol. Those polymers which were insoluble in methanol were dissolved in water. […] After complete drying, the water solubility of compound was determined by shake-flask method followed by […] analysis. […]
The water solubility of formulations prepared in Example 4 and compound of Formula A was determined in each well of plate containing different solid dispersion formulations. […] The supernatant was then analyzed by RP-HPLC.

SMILES: CN1CC[C@H](c2c(O)cc(O)c3c(=O)cc(/C=C/c4c(Cl)cccc4Cl)oc23)[C@H](O)C1 [Compound of formula A, (1′R,2′S)-2-(2,6-dichlorostyryl)-5,7-dihydroxy-8-(3-hydroxy-1-methylpiperidin-4-yl)-4H-chromen-4-one]
- Mortality ([1]; 50 mg/kg p.o): 0/7
- % Tumor growth inhibition on 13th day ([1]; 50 mg/kg p.o, once daily day 1-9): 24.75% and 24.75 ± 3.52%
- Mortality ([1]; 75 mg/kg p.o.): 0/7
- % Tumor growth inhibition on 13th day ([1]; 75 mg/kg p.o., once daily day 1-9): 30.92% and 30% and 30.92 ± 5.32%
- Mortality ([1]; 100 mg/kg p.o.): 0/7
- % Tumor growth inhibition on 13th day ([1]; 100 mg/kg p.o., once daily day 1-9): 38.63 ± 3.65%
- GI50 (Molt-4): < 1000 nM
- GI50 (MIAPaCa-2): < 1000 nM
- in-vivo efficacy in leukemia xenograft (leukemia xenograft): showed in-vivo efficacy
- Tmax (in vivo): 1 h
- % drug dissolution ([2]; phosphate buffer pH 6.8, 0.25% SLS, after 1 h): 63%
- % drug dissolved ([2]; water containing 0.25% SLS, after 2 h): 49.15%
- selectivity for cancer cells over normal fibroblast-cells [3]: highly selective
- in-vivo efficacy in colon xenograft (colon xenograft): showed in-vivo efficacy
- log P (Lipophilicity (log P)): 3.10
- in-vivo efficacy in pancreatic xenograft (pancreatic xenograft): showed in-vivo efficacy
- solubility at 120 min (physchem): 10 to 20 µg/mL
- % drug remaining [4]: > 95%
- CYP/efflux-pump liability (CYP/efflux-pump): did not have CYP/efflux-pump liability
- AUClast [5]: 2570 ng·h/mL
- Cmax [5]: 656 ng/mL
- solubility at 24 h [6]: 10 to 20 µg/mL

SMILES: O=c1[nH]cc(F)c(=O)[nH]1 [Formulation 5-FU, 5-fluorouracil, reference compound]
- Mortality ([1]; 22 mg/kg, i/p): 0/7
- % Tumor growth inhibition on 13th day ([1]; 22 mg/kg, i/p, day 1-9): 49.44 ± 6.32%
